Reference: PMC12498190, “A Photocaged N‐Phosphonopiperidinone as a Selective Photo‐Cleavable DPP8/9 Inhibitor” (Chembiochem, 2025)

Target: T1, PREP (Homo sapiens, UniProt P48147)
T1 construct: endogenous in cells; host or cells: HEK293 (Cytion, Germany, 300192)
T1 sequence (P48147 1-710): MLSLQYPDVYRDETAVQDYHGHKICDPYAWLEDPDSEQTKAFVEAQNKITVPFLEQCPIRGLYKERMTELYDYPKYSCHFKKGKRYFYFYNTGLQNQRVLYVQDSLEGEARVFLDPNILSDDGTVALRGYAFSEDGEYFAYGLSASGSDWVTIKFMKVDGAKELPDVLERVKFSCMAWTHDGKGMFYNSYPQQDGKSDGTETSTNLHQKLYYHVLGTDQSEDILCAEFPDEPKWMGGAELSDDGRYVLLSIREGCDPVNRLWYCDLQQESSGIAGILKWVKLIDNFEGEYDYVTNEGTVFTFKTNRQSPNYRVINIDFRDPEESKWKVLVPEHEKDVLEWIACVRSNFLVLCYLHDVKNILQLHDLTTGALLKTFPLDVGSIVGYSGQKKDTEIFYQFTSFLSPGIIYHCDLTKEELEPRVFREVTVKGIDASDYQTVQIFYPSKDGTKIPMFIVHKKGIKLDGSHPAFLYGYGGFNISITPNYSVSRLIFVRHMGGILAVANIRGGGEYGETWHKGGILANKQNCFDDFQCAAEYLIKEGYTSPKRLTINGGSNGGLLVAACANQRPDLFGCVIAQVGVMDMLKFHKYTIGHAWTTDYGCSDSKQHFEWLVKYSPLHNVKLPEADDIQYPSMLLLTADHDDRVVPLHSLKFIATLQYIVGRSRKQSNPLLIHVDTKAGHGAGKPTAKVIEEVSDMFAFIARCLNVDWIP
Test: In situ competitive ABPP in HEK293 cell culture, 70 kDa band
Assay type: cell-based
Conditions: pre-incubation 1 h with 20 µM or 10 µM (method), 10 µM 2 for 1 h, light 5 min
Experimental: Figure 2 Competitive ABPP with photo‐cleavable inhibitor 5 in HEK293 cells. A) Schematic overview of a competitive ABPP experiment. A proteome is pre‐incubated with a competitor, followed by a labeling reaction with an activity‐based probe (ABP). In the case of a photocaged inhibitor, the active compound can be released via irradiation. Target proteins of the competitor cannot be bound by the ABP, resulting in an absence of the respective protein band in‐gel analysis. Created in BioRender. Najdzion, M. (2025) https://BioRender.com/84zn8cb B) Gel‐based competitive ABPP experiment in HEK293 cell lysates with the broadband serine hydrolase ABP ≡FP or the DPP8/9‐directed ABP 2 and the photocaged inhibitor 5, at the indicated concentrations, after or without prior irradiation with green light for 5 min. The corresponding pre‐incubation time for 5 was 30 min. C) Corresponding in situ competitive ABPP experiment in HEK293 cell culture, again with 10 µM 2 for 1 h. […] HEK293 cells were irradiated with a green LED lamp in the presence of 0.5% DMSO for 5 min (‘light’), and cell viability was measured after 24 h. […] For both compounds, cell viability was measured under ‘dark’ (not irradiated) and ‘light’ (irradiated for 5 min with a green LED lamp after the addition of the inhibitor) conditions. […]

Q: How did the “Competition of PREP labeling in live cells (in words)” value turn out when `CCCCCc1ccc(SCCP(=O)(OCC)N2CCC[C@H](NC(=O)OCC3=C4C(C)=CC(C)=[N+]4[B-](C)(C)n4c(C)cc(C)c43)C2=O)cc1` (stereo partly shown) [Compound 5] was run?
A: partially competed
